Where a name gives a salt, the structure may show the parent alone. Read-outs that look alike come from different tables or passages of the source.
Tests used:
Test in all cases: biochemical; call rule not given here
[1] = biological target: Photinus pyralis (firefly) luciferase (Photinus pyralis, UniProt P08659); format: biochemical; design: Luciferase Efficacy: unit not given here
[2] = biological target: T1, human CYP1A2 (Homo sapiens, UniProt P05177)
T1 sequence (P05177 1-516): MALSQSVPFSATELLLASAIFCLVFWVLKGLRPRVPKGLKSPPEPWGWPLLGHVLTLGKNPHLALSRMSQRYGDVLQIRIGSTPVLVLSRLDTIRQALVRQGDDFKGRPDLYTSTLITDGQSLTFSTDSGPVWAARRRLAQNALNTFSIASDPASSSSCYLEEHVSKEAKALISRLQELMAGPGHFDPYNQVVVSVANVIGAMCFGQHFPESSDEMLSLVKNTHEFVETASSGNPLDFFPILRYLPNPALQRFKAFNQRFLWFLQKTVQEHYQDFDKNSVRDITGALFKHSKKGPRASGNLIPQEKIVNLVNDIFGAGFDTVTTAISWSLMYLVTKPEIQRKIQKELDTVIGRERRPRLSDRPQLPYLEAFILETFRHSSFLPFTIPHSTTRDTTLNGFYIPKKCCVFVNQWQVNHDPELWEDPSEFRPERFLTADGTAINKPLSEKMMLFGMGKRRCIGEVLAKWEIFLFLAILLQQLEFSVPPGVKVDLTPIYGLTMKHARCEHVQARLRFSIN

[3] = biological target: human CYP2C9 (Homo sapiens, UniProt P11712)
[4] = biological target: human CYP2C19 (Homo sapiens, UniProt P33261)
[5] = biological target: human CYP2D6 (Homo sapiens, UniProt P10635)
[6] = biological target: CYP3A4 (Homo sapiens, UniProt P08684)
[7] = CYP1A2 IC50 (half-maximal inhibitory concentration)
[8] = CYP2C9 IC50 (half-maximal inhibitory concentration)
[9] = CYP2C19 IC50 (half-maximal inhibitory concentration)
[10] = CYP2D6 IC50 (half-maximal inhibitory concentration)
[11] = CYP3A4 IC50 (half-maximal inhibitory concentration)

Sequence of Photinus pyralis (firefly) luciferase (P08659 whole entry): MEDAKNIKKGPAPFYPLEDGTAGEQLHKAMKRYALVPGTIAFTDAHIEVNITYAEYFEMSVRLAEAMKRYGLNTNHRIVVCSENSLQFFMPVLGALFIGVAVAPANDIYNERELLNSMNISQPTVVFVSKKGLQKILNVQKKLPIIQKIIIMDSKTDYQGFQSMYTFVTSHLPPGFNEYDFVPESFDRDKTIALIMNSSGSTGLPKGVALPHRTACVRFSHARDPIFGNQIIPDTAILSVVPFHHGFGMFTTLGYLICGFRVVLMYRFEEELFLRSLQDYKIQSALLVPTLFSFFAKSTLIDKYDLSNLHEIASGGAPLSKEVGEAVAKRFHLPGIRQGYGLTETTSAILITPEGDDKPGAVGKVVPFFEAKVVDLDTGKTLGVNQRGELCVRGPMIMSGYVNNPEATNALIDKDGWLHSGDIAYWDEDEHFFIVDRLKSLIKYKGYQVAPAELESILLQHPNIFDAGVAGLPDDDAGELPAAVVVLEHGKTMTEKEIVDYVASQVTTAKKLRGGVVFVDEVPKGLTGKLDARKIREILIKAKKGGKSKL
Sequence of human CYP2C19 (P33261 whole entry): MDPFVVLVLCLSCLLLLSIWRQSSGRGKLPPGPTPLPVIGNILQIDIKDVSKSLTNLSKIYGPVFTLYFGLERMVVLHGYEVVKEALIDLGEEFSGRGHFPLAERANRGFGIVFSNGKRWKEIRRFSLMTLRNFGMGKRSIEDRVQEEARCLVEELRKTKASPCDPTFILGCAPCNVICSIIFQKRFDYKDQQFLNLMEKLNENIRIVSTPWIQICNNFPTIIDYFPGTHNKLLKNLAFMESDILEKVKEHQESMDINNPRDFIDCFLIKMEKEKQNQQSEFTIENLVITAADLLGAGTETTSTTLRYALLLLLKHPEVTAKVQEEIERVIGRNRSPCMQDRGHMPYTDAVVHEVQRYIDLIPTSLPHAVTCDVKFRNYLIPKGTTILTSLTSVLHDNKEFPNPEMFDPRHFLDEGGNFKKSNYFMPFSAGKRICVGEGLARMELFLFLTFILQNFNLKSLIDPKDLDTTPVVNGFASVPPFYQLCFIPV
Sequence of human CYP2C9 (P11712 whole entry): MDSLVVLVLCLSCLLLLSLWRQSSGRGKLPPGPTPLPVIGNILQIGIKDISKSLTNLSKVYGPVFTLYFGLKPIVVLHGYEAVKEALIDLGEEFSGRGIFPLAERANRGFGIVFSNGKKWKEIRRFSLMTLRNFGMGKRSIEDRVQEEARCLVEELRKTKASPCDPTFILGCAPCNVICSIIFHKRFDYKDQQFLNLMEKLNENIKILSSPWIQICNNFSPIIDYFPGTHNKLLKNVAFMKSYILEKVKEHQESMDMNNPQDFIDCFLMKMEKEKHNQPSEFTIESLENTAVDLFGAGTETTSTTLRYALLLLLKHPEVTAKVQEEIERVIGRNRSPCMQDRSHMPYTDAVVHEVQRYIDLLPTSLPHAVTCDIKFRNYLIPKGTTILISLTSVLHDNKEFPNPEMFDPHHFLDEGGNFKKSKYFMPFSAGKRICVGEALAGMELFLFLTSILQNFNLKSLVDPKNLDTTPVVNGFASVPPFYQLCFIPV
Sequence of CYP3A4 (P08684 whole entry): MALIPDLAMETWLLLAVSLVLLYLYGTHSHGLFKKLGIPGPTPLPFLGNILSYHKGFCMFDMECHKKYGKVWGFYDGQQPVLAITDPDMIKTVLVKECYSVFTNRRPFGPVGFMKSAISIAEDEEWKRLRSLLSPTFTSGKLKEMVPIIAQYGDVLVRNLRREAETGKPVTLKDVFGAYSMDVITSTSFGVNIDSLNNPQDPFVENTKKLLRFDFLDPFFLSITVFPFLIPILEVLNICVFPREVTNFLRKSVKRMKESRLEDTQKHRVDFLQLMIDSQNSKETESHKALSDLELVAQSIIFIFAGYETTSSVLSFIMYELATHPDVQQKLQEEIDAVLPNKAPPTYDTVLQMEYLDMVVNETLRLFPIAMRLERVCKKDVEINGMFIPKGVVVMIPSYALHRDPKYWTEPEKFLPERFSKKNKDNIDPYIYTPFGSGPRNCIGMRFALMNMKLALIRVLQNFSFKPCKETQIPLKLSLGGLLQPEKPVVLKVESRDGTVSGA
Sequence of human CYP2D6 (P10635 whole entry): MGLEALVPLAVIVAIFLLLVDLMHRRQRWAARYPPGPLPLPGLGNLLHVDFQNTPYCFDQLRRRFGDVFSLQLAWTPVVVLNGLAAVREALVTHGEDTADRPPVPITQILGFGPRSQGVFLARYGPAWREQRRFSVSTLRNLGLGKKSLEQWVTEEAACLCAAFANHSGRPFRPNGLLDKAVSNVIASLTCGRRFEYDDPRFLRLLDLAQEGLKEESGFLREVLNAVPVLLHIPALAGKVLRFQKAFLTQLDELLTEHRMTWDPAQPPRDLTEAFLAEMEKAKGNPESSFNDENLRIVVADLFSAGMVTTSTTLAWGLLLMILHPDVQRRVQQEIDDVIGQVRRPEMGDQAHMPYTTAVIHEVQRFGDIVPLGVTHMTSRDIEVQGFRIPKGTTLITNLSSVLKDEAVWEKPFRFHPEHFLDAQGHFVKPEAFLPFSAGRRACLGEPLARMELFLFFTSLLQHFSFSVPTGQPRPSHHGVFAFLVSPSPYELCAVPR

SMILES: CC1COC(Cn2cncn2)(c2ccc(Oc3ccc(Cl)cc3)cc2Cl)O1 (centres unmarked) [Difenoconazole]
- Luciferase IC50 (half-maximal inhibitory concentration) [1]: Inactive
- IC50 [2, 7]: 27.4 µM
- IC50 [3, 8]: 1.22 µM
- IC50 [4, 9]: 0.08 µM
- IC50 [5, 10]: 34.4 µM
- IC50 [6, 11]: 0.08 µM

SMILES: CC(C(O)c1ccccc1)N(C)CCOC(c1ccccc1)c1ccccc1 (centres unmarked) [Difeterol]
- Luciferase IC50 (half-maximal inhibitory concentration) [1]: Inactive
- IC50 [2]: 23.5 ± 5.69 µM
- IC50 [3]: 16.8 ± 1.09 µM
- IC50 [4]: 7.12 ± 1.98 µM
- IC50 [5]: 0.11 ± 0.06 µM
- IC50 [6]: 0.62 ± 0.07 µM

SMILES: CCOP(=S)(OCC)SCCS(=O)(=O)CC [Disulfoton sulfone]
- Luciferase IC50 (half-maximal inhibitory concentration) [1]: Inactive
- IC50 [2, 7]: 26 µM
- IC50 [3]: 1.64 µM
- IC50 [4, 9]: 0.3 µM
- IC50 [5]: 13.4 µM
- IC50 [6, 11]: 2.61 µM

SMILES: CCCCCCCCCCCCN [Dodecylamine hydrochloride]
- Luciferase IC50 [1]: Inactive
- IC50 ([2]; CYP1A2 IC50): 2.55 µM
- IC50 ([3]; CYP2C9 IC50): 6.64 µM
- IC50 ([4]; CYP2C19 IC50): 0.47 µM
- IC50 ([5]; CYP2D6 IC50): 3.3 µM
- IC50 ([6]; CYP3A4 IC50): 34.3 µM

SMILES: O=S1OCC2C(CO1)C1(Cl)C(Cl)=C(Cl)C2(Cl)C1(Cl)Cl (centres unmarked) [Endosulfan]
- Luciferase IC50 [1]: Inactive
- IC50 ([2]; CYP1A2 IC50): 35.8 µM
- IC50 ([3]; CYP2C9 IC50): 37.2 µM
- IC50 ([4]; CYP2C19 IC50): 3.19 µM
- IC50 ([5]; CYP2D6 IC50): 18 µM
- IC50 ([6]; CYP3A4 IC50): 0.39 µM

SMILES: CCC(=O)O[C@H]1[C@H](O[C@@H]2[C@@H](C)[C@H](O[C@H]3C[C@@](C)(OC)[C@@H](O)[C@H](C)O3)[C@@H](C)C(=O)O[C@H](CC)[C@@](C)(O)[C@H](O)[C@@H](C)C(=O)[C@H](C)C[C@@]2(C)O)O[C@H](C)C[C@@H]1N(C)C [Erythromycin estolate]
- IC50 [1]: 55 µM
- IC50 [2]: 33.5 ± 11 µM
- IC50 [3]: 32.7 ± 12.3 µM
- IC50 [4]: 47.1 µM
- IC50 [5]: 30.5 ± 9.76 µM
- IC50 [6]: 0.29 ± 0.04 µM

SMILES: CCOP(=S)(OCC)SCSP(=S)(OCC)OCC [Ethion]
- Luciferase IC50 [1]: Inactive
- IC50 ([2]; CYP1A2 IC50): 19.6 µM
- IC50 [3]: 0.52 µM
- IC50 ([4]; CYP2C19 IC50): 0.34 µM
- IC50 [5]: 37 µM
- IC50 ([6]; CYP3A4 IC50): 0.97 µM

SMILES: CCOc1cc(C(C)(C)C)ccc1C1COC(c2c(F)cccc2F)=N1 (centres unmarked) [Etoxazole]
- Luciferase IC50 (half-maximal inhibitory concentration) [1]: Inactive
- IC50 [2, 7]: 19.6 µM
- IC50 [3, 8]: 9.94 µM
- IC50 [4, 9]: 3.43 µM
- IC50 [5, 10]: 10.5 µM
- IC50 [6, 11]: 0.11 µM

SMILES: OC(c1ccc(Cl)cc1)(c1cncnc1)c1ccccc1Cl (centres unmarked) [Fenarimol]
- Luciferase IC50 (half-maximal inhibitory concentration) [1]: Inactive
- IC50 [2, 7]: 71.4 µM
- IC50 [3, 8]: 6.1 µM
- IC50 [4, 9]: 0.24 µM
- IC50 [5, 10]: 35.6 µM
- IC50 [6, 11]: 0.17 µM

SMILES: N#CC(CCc1ccc(Cl)cc1)(Cn1cncn1)c1ccccc1 (centres unmarked) [Fenbuconazole]
- Luciferase IC50 (half-maximal inhibitory concentration) [1]: Inactive
- IC50 [2, 7]: 35.8 µM
- IC50 [3, 8]: 1.94 µM
- IC50 [4, 9]: 0.17 µM
- IC50 [5, 10]: 38.6 µM
- IC50 [6, 11]: 0.05 µM

SMILES: COP(=S)(OC)Oc1ccc([N+](=O)[O-])c(C)c1 [Fenitrothion]
- IC50 [1]: 67 µM
- IC50 [2, 7]: 1.04 µM
- IC50 [3, 8]: 6.12 µM
- IC50 [4, 9]: 0.55 µM
- IC50 [5, 10]: 35 µM
- IC50 [6, 11]: 8.48 µM

SMILES: O=[N+]([O-])c1cc(C(F)(F)F)c(Cl)c([N+](=O)[O-])c1Nc1ncc(C(F)(F)F)cc1Cl [Fluazinam]
- IC50 [1]: 89.4 µM
- IC50 [2, 7]: 35.6 µM
- IC50 [3, 8]: 0.73 µM
- IC50 [4, 9]: 14.8 µM
- IC50 [5, 10]: 46.2 µM
- IC50 [6, 11]: 18.7 µM

SMILES: C[Si](Cn1cncn1)(c1ccc(F)cc1)c1ccc(F)cc1 [Flusilazole]
- Luciferase IC50 (half-maximal inhibitory concentration) [1]: Inactive
- IC50 [2, 7]: 27.9 µM
- IC50 [3, 8]: 2.28 µM
- IC50 [4, 9]: 0.06 µM
- IC50 [5, 10]: 33 µM
- IC50 [6, 11]: 0.16 µM

SMILES: OC(Cn1cncn1)(c1ccc(F)cc1)c1ccccc1F (centres unmarked) [Flutriafol]
- Luciferase IC50 (half-maximal inhibitory concentration) [1]: Inactive
- IC50 [2, 7]: 35.7 µM
- IC50 [3, 8]: 0.77 µM
- IC50 [4, 9]: 1.63 µM
- IC50 [5, 10]: 37 µM
- IC50 [6, 11]: 0.24 µM

SMILES: CCCCC(O)(Cn1cncn1)c1ccc(Cl)cc1Cl (centres unmarked) [Hexaconazole]
- Luciferase IC50 (half-maximal inhibitory concentration) [1]: Inactive
- IC50 [2, 7]: 37 µM
- IC50 [3, 8]: 0.52 µM
- IC50 [4, 9]: 0.3 µM
- IC50 [5, 10]: 33 µM
- IC50 [6, 11]: 0.11 µM

SMILES: COP(N)(=S)Oc1ccccc1C(=O)OC(C)C (centres unmarked) [Isocarbophos]
- Luciferase IC50 (half-maximal inhibitory concentration) [1]: Inactive
- IC50 [2, 7]: 1.14 µM
- IC50 [3, 8]: 5.11 µM
- IC50 [4, 9]: 0.13 µM
- IC50 [5, 10]: 46.1 µM
- IC50 [6, 11]: 1.61 µM

SMILES: CCOP(=S)(NC(C)C)Oc1ccccc1C(=O)OC(C)C (centres unmarked) [Isofenphos]
- Luciferase IC50 (half-maximal inhibitory concentration) [1]: Inactive
- IC50 [2, 7]: 9.71 µM
- IC50 [3]: 1.44 µM
- IC50 [4, 9]: 0.19 µM
- IC50 [5]: 60.6 µM
- IC50 [6, 11]: 0.68 µM

SMILES: CCOP(=S)(OCC)Oc1cc(-c2ccccc2)on1 [Isoxathion]
- IC50 [1]: 33 µM
- IC50 ([2]; CYP1A2 IC50): 3.92 µM
- IC50 [3]: 0.75 µM
- IC50 ([4]; CYP2C19 IC50): 2.55 µM
- IC50 [5]: 35.6 µM
- IC50 ([6]; CYP3A4 IC50): 2.11 µM

SMILES: O=C1C2(Cl)C3(Cl)C4(Cl)C(Cl)(Cl)C5(Cl)C3(Cl)C1(Cl)C5(Cl)C24Cl (centres unmarked) [Kepone]
- Luciferase IC50 [1]: Inactive
- IC50 ([2]; CYP1A2 IC50): 36.4 µM
- IC50 [3]: 6.47 µM
- IC50 ([4]; CYP2C19 IC50): 0.87 µM
- IC50 [5]: 67.9 µM
- IC50 ([6]; CYP3A4 IC50): 3.13 µM

SMILES: CCCCN(CCCC)CC(O)c1cc(Cl)cc2c1-c1ccc(Cl)cc1/C2=C/c1ccc(Cl)cc1 (centres unmarked) [Lumefantrine]
- Luciferase IC50 [1]: Inactive
- IC50 ([2]; CYP1A2 IC50): 14.8 µM
- IC50 ([3]; CYP2C9 IC50): 16.2 µM
- IC50 ([4]; CYP2C19 IC50): 26.9 µM
- IC50 ([5]; CYP2D6 IC50): 0.69 µM
- IC50 ([6]; CYP3A4 IC50): 16.8 µM

SMILES: CCN(CC)C(=O)[C@@H]1C=C2c3cccc4[nH]cc(c34)C[C@H]2N(C)C1 [Lysergide]
- Luciferase IC50 [1]: Inactive
- IC50 ([2]; CYP1A2 IC50): 151 µM
- IC50 ([3]; CYP2C9 IC50): 72.9 µM
- IC50 ([4]; CYP2C19 IC50): 156 µM
- IC50 ([5]; CYP2D6 IC50): 0.43 µM
- IC50 ([6]; CYP3A4 IC50): 71.8 µM

SMILES: CCOC(=O)N(C)C(=O)CSP(=S)(OCC)OCC [Mecarbam]
- Luciferase IC50 [1]: Inactive
- IC50 ([2]; CYP1A2 IC50): 2.91 µM
- IC50 ([3]; CYP2C9 IC50): 0.7 µM
- IC50 ([4]; CYP2C19 IC50): 0.09 µM
- IC50 ([5]; CYP2D6 IC50): 27.5 µM
- IC50 ([6]; CYP3A4 IC50): 2.6 µM

SMILES: CC(C)Nc1ccc(Nc2ccccc2)cc1 [N-Isopropyl-N'-phenyl-p-phenylenediamine]
- IC50 [1]: 34.2 µM
- Luciferase Efficacy [1]: 34.17 ± 2.23 (-75 ± 7) %
- IC50 ([2]; CYP1A2 IC50): 35.5 µM
- IC50 ([3]; CYP2C9 IC50): 0.97 µM
- IC50 ([4]; CYP2C19 IC50): 4.25 µM
- IC50 ([5]; CYP2D6 IC50): 9.04 µM
- IC50 ([6]; CYP3A4 IC50): 17.3 µM

SMILES: CCOC(=O)C(SP(=S)(OC)OC)c1ccccc1 (centres unmarked) [Phenthoate]
- Luciferase IC50 [1]: Inactive
- IC50 ([2]; CYP1A2 IC50): 3.79 µM
- IC50 [3]: 1.28 µM
- IC50 ([4]; CYP2C19 IC50): 0.3 µM
- IC50 [5]: 49.3 µM
- IC50 ([6]; CYP3A4 IC50): 3.33 µM

SMILES: CCN(CC)c1nc(C)cc(OP(=S)(OC)OC)n1 [Pirimiphos-methyl]
- Luciferase IC50 (half-maximal inhibitory concentration) [1]: Inactive
- IC50 [2, 7]: 1.49 µM
- IC50 [3]: 23.6 µM
- IC50 [4, 9]: 0.19 µM
- IC50 [5]: 53.3 µM
- IC50 [6, 11]: 2.22 µM

SMILES: CCCN(CCOc1c(Cl)cc(Cl)cc1Cl)C(=O)n1ccnc1 [Prochloraz]
- Luciferase IC50 (half-maximal inhibitory concentration) [1]: Inactive
- IC50 [2, 7]: 0.22 µM
- IC50 [3, 8]: 0.81 µM
- IC50 [4, 9]: 0.05 µM
- IC50 [5, 10]: 0.53 µM
- IC50 [6, 11]: 0.07 µM

SMILES: C#CCOS(=O)OC1CCCCC1Oc1ccc(C(C)(C)C)cc1 (centres unmarked) [Propargite]
- Luciferase IC50 (half-maximal inhibitory concentration) [1]: Inactive
- IC50 [2, 7]: 7.75 µM
- IC50 [3, 8]: 0.49 µM
- IC50 [4, 9]: 0.78 µM
- IC50 [5, 10]: 16 µM
- IC50 [6, 11]: 1.87 µM

SMILES: OC(Cc1ccccc1Cl)(Cn1nc[nH]c1=S)C1(Cl)CC1 (centres unmarked) [Prothioconazole]
- IC50 [1]: 65.8 µM
- Luciferase Efficacy [1]: 65.83 ± 4.46 (-26 ± 4) %
- IC50 [2, 7]: 41.9 µM
- IC50 [3, 8]: 0.93 µM
- IC50 [4, 9]: 2.55 µM
- IC50 [5, 10]: 47.5 µM
- IC50 [6, 11]: 8 µM
